Assay results from US20070160975A1, “Method for the Identification of Drugs to Treat Stroke at Delayed Timepoints” (UNIVERSITY OF SOUTH FLORIDA, priority 2006, published 2007).

How the values were obtained:
[1] = tested on: primary microglial cultures; test: LPS stimulated TNF-α release, ELISA; format: cell-based, rat; conditions: TNF-α by ELISA
Description: (§1) FIG. 2 is a graph illustrating that sigma receptor activation reduces LPS-induced cytotoxin production. […] Nitric oxide levels were quantified using the Griess reaction while TNF-α levels were measured by ELISA.
(§2) To gauge anti-inflammatory action, primary microglial cultures will be treated with lipopolysaccharide, which elicits a robust inflammatory response from these cells. Compounds that are effective agonist stroke at delayed timepoints are able to block the LPS-induced inflammatory response in microglial cells. The inflammatory cytokine, TNF-α and nitric oxide are two inflammatory agents to be measured to determine anti-inflammatory action of the compound. […] Using these two in vitro screening methods, other compounds that will be useful in treating stroke will be discovered.
TNF-α ELISA-Capture antibody (#MAB510 anti-rat antibody TNF R&D biosysterns) will be diluted with 2 μg/ml in coating buffer and incubated at 4° C. overnight. The capture antibody will then coat a high protein binding 96 well plate. Each well of the 96 well plate will be aspirated and washed three times with wash buffer. […] During incubation, direct light will be avoided 50 μl of 1 M H2SO4 will be added to each well and optical density will be determined within 30 minutes using a microplate reader set at 450 nm.

[2] = tested on: primary microglial cultures; test: LPS stimulated nitric oxide release, Griess reaction; format: cell-based, rat; conditions: nitric oxide by Griess reaction
Description: as §1, §2
Nitric Oxide Determination: The supematant from treated primary rat rnicrogiia cultures will be harvested, placed in 1.5 ml micro-centrifuge tubes and then centrifuged in a bench top micro-centrifuge at 13,000×g for 1 minute. The supernatant will be withdrawn and placed in a clean, labeled micro-centrifuge tube. Standards (between 100 μM and 1 μM) will be prepared by diluting stock 1 mM Sodium Nitrite, contained in the kit, with DMEM in 1.5 ml micro centrifuge tubes. […] The absorbance at 458 nm will be measured in a spectrophotometer capable of reading 96 well plates.

Cc1ccccc1N=C(N)Nc1ccccc1C [DTG]
LPS stimulated TNF-α release [1]: dose dependently reduced | LPS stimulated nitric oxide release [2]: dose dependently reduced
